These are literature values, as cited in patent US20260174683A1, “CHEWABLE COMPOSITION COMPRISING A GUMMY MATRIX AND COMPRISING MELATONIN, SODIUM ALGINATE, AND CALCIUM LACTATE” (S.I.I.T. S.R.L.-SERVIZIO INTERNAZIONALE IMBALLAGGI …, priority 2022, published 2026).

With `CC(O)C(=O)[O-].CC(O)C(=O)[O-].[Ca+2]` (centres unmarked) [calcium lactate], the “pH of 5% solution in water” value is recorded as 6-8.
Take `CC(O)C(=O)[O-].CC(O)C(=O)[O-].[Mg+2]` (centres unmarked) [Magnesium lactate, magnesium lactate]: the “pH of 5% solution in water” value is reported as 6.5-8.5.
